The source of these data is US8232279B2, “Pyrazolopyrimidine derivatives having biological activity on serotonin receptor 5-HT2c” (Korea Institute of Science and Technology, priority 2009, dated 2012).

The structures appear in SMILES notation. Where two headings read alike, the source gives them in different places.

The target of this experiment is T1, human recombinant 5-HT2C receptor (Homo sapiens, UniProt P28335).
T1 construct: expressed in transfected cells
T1 sequence (P28335 33-458): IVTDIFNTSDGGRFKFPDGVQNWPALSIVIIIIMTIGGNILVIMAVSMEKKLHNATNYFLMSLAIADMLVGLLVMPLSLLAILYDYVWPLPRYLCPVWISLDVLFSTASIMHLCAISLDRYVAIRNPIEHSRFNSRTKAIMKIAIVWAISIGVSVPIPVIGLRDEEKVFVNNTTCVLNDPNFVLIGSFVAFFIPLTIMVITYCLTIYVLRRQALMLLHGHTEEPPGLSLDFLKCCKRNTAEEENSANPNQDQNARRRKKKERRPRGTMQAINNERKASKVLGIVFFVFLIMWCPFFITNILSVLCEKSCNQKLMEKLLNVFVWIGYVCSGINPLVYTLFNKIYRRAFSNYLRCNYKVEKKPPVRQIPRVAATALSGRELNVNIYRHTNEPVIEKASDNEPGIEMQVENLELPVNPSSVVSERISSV
Briefly: [3H]Mesulergine binding to serotonin 5-HT2C receptor. To be noted: read-out: Affinity for 5-HT2C receptor (IC50). The method, then: [^3H]Mesulergine Binding to Serotonin 5-HT2C Receptor
Frozen membranes from stable CHO—K1 cell line expressing the human recombinant 5-HT2C receptor were used. For the binding assay, [^3H]Mesulergine (1 nM), receptor membrane (4 ug/well) and test compounds were added into 50 mM Tris-HCl (pH 7.7) buffer containing 0.1% ascorbic acid and 10 uM pargyline. Nonspecific binding was determined using 0.5 uM mianserin. The incubations were performed for 30 min at 37° C., and these were terminated by rapid filtration through Whatman GF/C glass fiber filters presoaked in 1% BSA. Then, the resultant was washed with cold 50 mM Tris-HCl buffer. The filter was covered with MeltiLex, sealed in a sample bag followed by drying in the microwave oven, and counted by MicroBeta Plus (Wallac, Finland). Nonspecific binding was determined in the presence of mianserin (0.5 uM). Competition binding studies were carried out with 7-8 varied concentrations of the test compounds run in duplicate tubes, and isotherms from three assays were calculated by computerized nonlinear regression analysis (GraphPad Prism Program, San Diego, USA) to yield IC50 values (Table 1).

Where [1] appears, read: [3H]Mesulergine (1 nM), membranes from CHO-K1 cell line expressing human recombinant 5-HT2C receptor, 30 min at 37° C.

The IC50 is the concentration that inhibits the measured activity by half. Take `Cn1ncc2c(Nc3ccc(F)cc3)nc(N3CCN(Cc4ccccc4)CC3)nc21` [Comp. 27, 6-(4-benzylpiperazine-1-yl)-N-(4-fluorophenyl)-1-methyl-1H-pyrazolo[3,4-d]pyrimidine-4-amine]: under setting [1], the concentration for half-maximal inhibition (IC50) stood at 836 nM. The same measure, in the same setting: under `Cc1ccc(CNc2nc(Nc3ccc(F)cc3)c3cnn(C)c3n2)cc1` [Comp. 17, N^4-(4-fluorophenyl)-1-methyl-N^6-(4-methylbenzyl)-1H-pyrazolo[3,4-d]pyrimidine-4,6-diamine] stands 5830 nM; under `Cn1ncc2c(Nc3ccc(F)cc3)nc(NC3CCCCC3)nc21` [Comp. 14, N^6-cyclohexyl-N^4-(4-fluorophenyl)-1-methyl-1H-pyrazolo[3,4-d]pyrimidine-4,6-diamine], 5710 nM.

In the case of `CN(C)c1nc(Nc2ccc(F)cc2)c2cnn(C)c2n1` [Comp. 19, N^4-(4-fluorophenyl)-N^6,N^6,1-trimethyl-1H-pyrazolo[3,4-d]pyrimidine-4,6-diamine], the half-maximal inhibitory concentration (IC50) under setting [1] was found to be 4030 nM.

`COCCCNc1nc(Nc2ccc(F)cc2)c2cnn(C)c2n1` [Comp. 12, N^4-(4-fluorophenyl)-N^6-(3-methoxypropyl)-1-methyl-1H-pyrazolo[3,4-d]pyrimidine-4,6-diamine]: the IC50 under setting [1] was over 1000 nM. Same read-out and setting: as for `CC1CC(C)CN(c2nc(Nc3ccc(F)cc3)c3cnn(C)c3n2)C1` (stereo not drawn) [Comp. 23, 6-(3,5-dimethylpiperidine-1-yl)-N-(4-fluorophenyl)-1-methyl-1H-pyrazolo[3,4-d]pyrimidine-4-amine], the figure is 3820 nM; as for `Cn1ncc2c(Nc3ccc(F)cc3)nc(NC3CCCC3)nc21` [Comp. 15, N^6-cyclopentyl-N^4-(4-fluorophenyl)-1-methyl-1H-pyrazolo[3,4-d]pyrimidine-4,6-diamine], over 1000 nM; as for `COc1ccccc1N1CCN(c2nc(Nc3ccc(F)cc3)c3cnn(C)c3n2)CC1` [Comp. 30, N-(4-fluorophenyl)-6-(4-(2-methoxyphenyl)piperazine-1-yl)-1-methyl-1H-pyrazolo[3,4-d]pyrimidine-4-amine], 1720 nM. The same measure, in the same setting: under `Cn1ncc2c(Nc3ccc(F)cc3)nc(NCCN3CCOCC3)nc21` [Comp. 18, N^4-(4-fluorophenyl)-1-methyl-N^6-(2-morpholinoethyl)-1H-pyrazolo[3,4-d]pyrimidine-4,6-diamine] stands over 1000 nM; under `Cn1ncc2c(Nc3ccc(F)cc3)nc(N3CCCCC3)nc21` [Comp. 22, N-(4-fluorophenyl)-1-methyl-6-(piperidine-1-yl)-1H-pyrazolo[3,4-d]pyrimidine-4-amine], 1300 nM. Still for that read-out and setting: under `CCN(CC)c1nc(Nc2ccc(C)c(C)c2)c2cnn(C)c2n1` [Comp. 4, N^4-(3,4-dimethylphenyl)-N^6,N^6-diethyl-1-methyl-1H-pyrazolo[3,4-d]pyrimidine-4,6-diamine] stands 8490 nM; under `CN1CCN(c2nc(Nc3ccc(Cl)cc3)c3cnn(C)c3n2)CC1` [Comp. 6, N^6-(4-chlorophenyl)-1-methyl-6-(4-methylpiperazine-1-yl)-1H-pyrazolo[3,4-d]pyrimidine-4-amine], 29.4 nM. For the compound `COc1ccc(Nc2nc(N3CCN(c4ccc(F)cc4)CC3)nc3c2cnn3C)cc1` [Comp. 34, 6-(4-(4-fluorophenyl)piperazine-1-yl)-N-(4-methoxyphenyl)-1-methyl-1H-pyrazolo[3,4-d]pyrimidine-4-amine], the concentration for half-maximal inhibition (IC50) amounted to 1180 nM.

Consider `CCN(CC)c1nc(Nc2cccc(OC)c2)c2cnn(C)c2n1` [Comp. 31, N^6,N^6-diethyl-N^4-(3-methoxyphenyl)-1-methyl-1H-pyrazolo[3,4-d]pyrimidine-4,6-diamine], for which the IC50 under setting [1] was determined as 5420 nM. Still for that read-out and setting: under `Cn1ncc2c(Nc3ccc(F)cc3)nc(NCCCO)nc21` [Comp. 10, 3-(4-(4-fluorophenylamino)-1-methyl-1H-pyrazolo[3,4-d]pyrimidine-6-ylamino)propane-1-ol] stands over 1000 nM. On to `Cn1ncc2c(Nc3ccc(F)cc3)nc(N3CCN(c4ccccc4)CC3)nc21` [Comp. 28, N-(4-fluorophenyl)-1-methyl-6-(4-phenylpiperazine-1-yl)-1H-pyrazolo[3,4-d]pyrimidine-4-amine], for which the IC50 under setting [1] came out at 416 nM.

Turning to `CCNc1nc(Nc2ccc(F)cc2)c2cnn(C)c2n1` [Comp. 9, N^6-ethyl-N^4-(4-fluorophenyl)-1-methyl-1H-pyrazolo[3,4-d]pyrimidine-4,6-diamine], the 50% inhibitory concentration (IC50) under setting [1] is over 1000 nM. Still for that read-out and setting: as for `COCCNc1nc(Nc2ccc(F)cc2)c2cnn(C)c2n1` [Comp. 11, N^4-(4-fluorophenyl)-N^6-(2-methoxyethyl)-1-methyl-1H-pyrazolo[3,4-d]pyrimidine-4,6-diamine], the figure is over 1000 nM; as for `Cn1ncc2c(Nc3ccc(F)cc3)nc(N3CCN(CCO)CC3)nc21` [Comp. 26, 2-(4-(4-(4-fluorophenylamino)-1-methyl-1H-pyrazolo[3,4-d]pyrimidine-6-yl)piperazine-1-yl)ethanol], 494 nM; as for `CN1CCN(c2nc(Nc3ccc(F)cc3)c3cnn(C)c3n2)CC1` [Comp. 25, N-(4-fluorophenyl)-1-methyl-6-(4-methylpiperazine-1-yl)-1H-pyrazolo[3,4-d]pyrimidine-4-amine], 85.8 nM. As to `CCN(CC)c1nc(Nc2ccc(F)cc2)c2cnn(C)c2n1` [Comp. 20, N^6,N^6-diethyl-N^4-(4-fluorophenyl)-1-methyl-1H-pyrazolo[3,4-d]pyrimidine-4,6-diamine], the IC50 under setting [1] is 3310 nM. Turning to `Cn1ncc2c(Nc3ccc(F)cc3)nc(N3CCN(c4ccc(F)cc4)CC3)nc21` [Comp. 29, N-(4-fluorophenyl)-6-(4-(4-fluorophenyl)piperazine-1-yl)-1-methyl-1H-pyrazolo[3,4-d]pyrimidine-4-amine], the IC50 under setting [1] turned out to be 148 nM. Still for that read-out and setting: as for `C=CCNc1nc(Nc2ccc(F)cc2)c2cnn(C)c2n1` [Comp. 13, N^6-allyl-N^4-(4-fluorophenyl)-1-methyl-1H-pyrazolo[3,4-d]pyrimidine-4,6-diamine], the figure is over 1000 nM; as for `CNc1nc(Nc2ccc(F)cc2)c2cnn(C)c2n1` [Comp. 8, N^4-(4-fluorophenyl)-N^6,1-dimethyl-1H-pyrazolo[3,4-d]pyrimidine-4,6-diamine], 7790 nM.

Take `Cn1ncc2c(Nc3ccc(F)cc3)nc(N3CCOCC3)nc21` [Comp. 21, N-(4-fluorophenyl)-1-methyl-6-morpholino-1H-pyrazolo[3,4-d]pyrimidine-4-amine]: under setting [1], the IC50 stood at 2070 nM.

Take `CN1CCN(c2nc(Nc3ccccc3)c3cnn(C)c3n2)CC1` [Comp. 3, 1-methyl-6-(4-methylpiperazine-1-yl)-N-phenyl-1H-pyrazolo[3,4-d]pyrimidine-4-amine]: the 50% inhibitory concentration (IC50) under setting [1] was determined as 86.9 nM. On the same count and under the same terms, under `CC1CCN(c2nc(Nc3ccc(F)cc3)c3cnn(C)c3n2)CC1` [Comp. 24, N-(4-fluorophenyl)-1-methyl-6-(4-methylpiperidine-1-yl)-1H-pyrazolo[3,4-d]pyrimidine-4-amine] stands 1500 nM; under `CN1CCN(c2nc(Nc3ccc(F)cc3)c3cnn(C)c3n2)CC1` [Comp. 35, N-(4-fluorophenyl)-1-methyl-6-(4-methylpiperazine-1-yl)-1H-pyrazolo[3,4-d]pyrimidine-4-amine], 20.1 nM.

On to `CCN(CC)c1nc(Nc2ccc(Cl)cc2)c2cnn(C)c2n1` [Comp. 5, N^4-(4-chlorophenyl)-N^6,N^6-diethyl-1-methyl-1H-pyrazolo[3,4-d]pyrimidine-4,6-diamine], for which the half-maximal inhibitory concentration (IC50) under setting [1] amounted to 991 nM.

Regarding `COc1cccc(Nc2nc(N3CCN(C)CC3)nc3c2cnn3C)c1` [Comp. 32, N-(3-methoxyphenyl)-1-methyl-6-(4-methylpiperazine-1-yl)-1H-pyrazolo[3,4-d]pyrimidine-4-amine], under setting [1], the IC50 came out at 7.8 nM. Same read-out and setting: under `COc1cccc(Nc2nc(N3CCN(c4ccc(F)cc4)CC3)nc3c2cnn3C)c1` [Comp. 33, 6-(4-(4-fluorophenyl)piperazine-1-yl)-N-(3-methoxyphenyl)-1-methyl-1H-pyrazolo[3,4-d]pyrimidine-4-amine] stands 1080 nM. Turning to `Cn1ncc2c(Nc3ccc(F)cc3)nc(NCc3ccccc3)nc21` [Comp. 16, N^6-benzyl-N4-(4-fluorophenyl)-1-methyl-1H-pyrazolo[3,4-d]pyrimidine-4,6-diamine], the IC50 under setting [1] was 2590 nM. Same read-out and setting: under `CCN(CC)c1nc(Nc2ccccc2C)c2cnn(C)c2n1` [Comp. 7, N^6,N^6-diethyl-1-methyl-N^4-o-tolyl-1H-pyrazolo[3,4-d]pyrimidine-4,6-diamine] stands 242 nM.
